Laboratory results: patent publication US7148246B2, “Cycloalkyl derivatives having bioisosteric carboxylic acid groups, processes for their preparation and their use as pharmaceuticals” (Sanofi-Aventis Deutschland GmbH, priority 2003, dated 2006)

The compounds below were run against T1, human PPARalpha (Homo sapiens, UniProt Q07869) (assay: Cellular PPARalpha assay (stably transfected HEK luciferase reporter cell line)). Conditions: PPARalpha reporter cell line (HEK, GR-GAL4-humanPPARalpha-LBD), luciferase readout.
T1 construct: amino acids S167–Y468; expressed in transfected cells; host or cells: HEK (human embryo kidney) cells, stably transfected with pcDNA3 carrying the fusion construct
T1 sequence (Q07869 167-468): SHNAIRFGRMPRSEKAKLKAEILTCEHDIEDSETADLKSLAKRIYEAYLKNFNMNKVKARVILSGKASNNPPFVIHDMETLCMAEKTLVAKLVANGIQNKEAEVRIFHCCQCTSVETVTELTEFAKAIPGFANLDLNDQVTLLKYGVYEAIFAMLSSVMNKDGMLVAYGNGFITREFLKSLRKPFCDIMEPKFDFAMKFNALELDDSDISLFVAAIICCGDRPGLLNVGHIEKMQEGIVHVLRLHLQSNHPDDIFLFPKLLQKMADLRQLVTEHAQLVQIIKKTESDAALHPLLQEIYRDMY
Type: cell-based
Method: Determination of EC50 Values of PPAR Agonists in the Cellular PPARalpha Assay
The potency of substances which bind to human PPARalpha and activate in an agonistic manner is analyzed using a stably transfected HEK cell line (HEK=human embryo kidney) which is referred to here as PPARalpha reporter cell line. It contains two genetic elements, a luciferase reporter element (pdeltaM-GAL4-Luc-Zeo) and a PPARalpha fusion protein (GR-GAL4-humanPPARalpha-LBD) which mediates expression of the luciferase reporter element depending on a PPARalpha ligand. The stably and constitutively expressed fusion protein GR-GAL4-humanPPARalpha-LBD binds in the cell nucleus of the PPARalpha reporter cell line via the GAL4 protein portion to the GAL4 DNA binding motifs 5′-upstream of the luciferase reporter element which is integrated in the genome of the cell line. There is only little expression of the luciferase reporter gene without addition of a PPARalpha ligand if fatty acid-depleted fetal calf serum (cs-FCS) is used in the assay. PPARalpha ligands bind and activate the PPARalpha fusion protein and thereby bring about expression of the luciferase reporter gene. The luciferase which is formed can be detected by means of chemiluminescence via an appropriate substrate.
The PPARalpha reporter cell line was prepared in 2 stages. Firstly, the luciferase reporter element was constructed and stably transfected into HEK cells. For this purpose, five binding sites of the yeast transcription factor GAL4 (each 5′-CGGAGTACTGTCCTCCGAG-3′) (SEQ ID No.1) were cloned in 5′-upstream of a 68 bp-long minimal MMTV promoter (Genbank Accession #V01175). The minimal MMTV promoter section contains a […] and a TATA element in order to enable efficient transcription by RNA polymerase II. The cloning and sequencing of the GAL4-MMTV construct took place in analogy to the description of Sambrook J. et. al. (Molecular cloning, Cold Spring Harbor Laboratory Press, 1989). Then the complete Photinus pyralis gene (Genbank Accession #M15077) was cloned in 3′-downstream of the GAL4-MMTV element. After sequencing, the luceriferase reporter element consisting of five GAL4 binding sites, MMTV promoter and luciferase gene was recloned into a plasmid which confers zeocin resistance in order to obtain the plasmid pdeltaM-GAL4-Luc-Zeo. This vector was transfected into HEK cells in accordance with the statements in Ausubel, F. M. et al. (Current protocols in molecular biology, Vol. 1–3, John Wiley & Sons, Inc., 1995). […] In a second step, the PPARalpha fusion protein (GR-GAL4-humanPPARalpha-LBD was introduced into the stable cell clone described. For this purpose, initially the cDNA coding for the N-terminal 76 amino acids of the glucocorticoid receptor (Genbank Accession #P04150) was linked to the cDNA section coding for amino acids 1–147 of the yeast transcription factor GAL4 (Genbank Accession #P04386). The cDNA of the ligand-binding domain of the human PPARalpha receptor (amino acids S167–Y468; Genbank Accession #S74349) was cloned in at the 3′-end of this GR-GAL4 construct. The fusion construct prepared in this way (GR-GAL4-humanPPARalpha-LBD) was recloned into the plasmid pcDNA3 (from Invitrogen) in order to enable constitutive expression therein by the cytomegalovirus promoter. This plasmid was linearized with a restriction endonuclease and stably transfected into the previously described cell clone containing the luciferase reporter element. The finished PPARalpha reporter cell line which contains a luciferase reporter element and constitutively expresses the PPARalpha fusion protein (GR-GAL4-human PPARalpha-LBD) was isolated by selection with zeocin (0.5 mg/ml) and G418 (0.5 mg/ml).
The activity of PPARalpha agonists is determined in a 3-day assay which is described below: […]

SMILES | EC50 [µM]
Cc1ccc(-c2nc(CO[C@@H]3CCC[C@H](/C=C4/SC(=O)NC4=O)C3)c(C)o2)cc1 (racemic) [Example XXXIV, 5-[1-[cis-3-(5-Methyl-2-tolyloxazol-4-ylmethoxy)cyclohexyl]methylidene]-thiazolidine-2,4-dione] | 0.114
COc1ccc(S(=O)(=O)O[C@H]2CCC[C@@H](OCc3nc(-c4ccc(F)cc4)oc3C)C2)c([N+](=O)[O-])c1 (relative stereo) [Example XXI, cis-3-[2-(4-fluorophenyl)-5-methyloxazol-4-ylmethoxy]cyclohexyl 4-methoxy-2-nitrobenzenesulfonate] | 1.25
Cc1oc(-c2ccc(F)cc2)nc1CO[C@@H]1CCC[C@H](OS(=O)(=O)c2cc([N+](=O)[O-])ccc2Cl)C1 (relative stereo) [Example XX, cis-3-[2-(4-fluorophenyl)-5-methyloxazol-4-ylmethoxy]cyclohexyl 2-chloro-5-nitrobenzenesulfonate] | 1.93
Cc1oc(-c2ccc(F)cc2)nc1CO[C@H]1CCC[C@@H](OCc2cccc([N+](=O)[O-])c2)C1 (relative stereo) [VIII, 2-(4-Fluorophenyl)-5-methyl4-[cis-3-(3-nitrobenzyloxy)cyclohexyloxy-methyl]oxazole] | 0.091

More lines, now with the values ahead:

EC50 [µM] | SMILES
0.709 | Cc1oc(-c2ccc(F)cc2)nc1CO[C@@H]1CCC[C@H](OCCC2SC(=O)NC2=O)C1 (relative stereo) [Example XXVI, 5-(2-{cis-3-[2-(4-Fluorophenyl)-5-methyloxazol-4-ylmethoxy]cyclohexyloxy}-ethyl)thiazolidine-2,4-dione]
0.726 | Cc1cccc(-c2nc(COC3CCCC(OCCC4SC(=O)NC4=O)C3)c(C)o2)c1 (stereo not drawn) [Example XXVII, 5-{2-[(cis-3-(5-Methyl-2-tolyloxazol-4-ylmethoxy)cyclohexyloxy]ethyl}thiazolidine-2,4-dione]
0.227 | Cc1oc(-c2ccc(F)cc2)nc1COC1CCCC(OC/C=C2\NC(=O)NC2=O)C1 (racemic) [XXIV, 5-[2-{cis-3-[2-(4-Fluorophenyl)-5-methyloxazol-4-ylmethoxy]cyclohexyloxy}-ethylidene]imidazolidine-2,4-dione]
0.187 | Cc1ccc(-c2nc(COC3CCCC(CC4SC(=O)NC4=O)C3)c(C)o2)cc1 (stereo not drawn) [XXXV, 5-[cis-3-(5-Methyl-2-tolyloxazol-4-ylmethoxy)cyclohexylmethyl]thiazolidine-2,4-dione]
